According to patent US20260285849A1, “METHYLOPHIOPOGONONE A DERIVATIVE, AND PREPARATION AND USE THEREOF” (INSTITUTE OF MATERIA MEDICA, CHINESE ACADEMY OF MEDICAL …, priority 2022, published 2026):

Assays:
[1] = system: mice with hypertensive heart disease induced by angiotensin II (AngII); experiment: AngII-induced hypertensive heart disease mouse model: serum BNP (ELISA); type: in vivo
Method: (§1) After male C57BL/6 mice were acclimated to the environment, they were randomly divided into 10 groups, namely the blank control group, the AngII model group, the AngII+telmisartan 10 mg/kg positive control group, the AngII+spironolactone 20 mg/kg positive control group, the AngII+Formula I (0.1, 0.5, 2 mg/kg) groups, and the AngII+Formula II (0.1, 0.5, 2 mg/kg) groups. The mice in the drug administration groups were intragastrically administered the corresponding doses of Formula I and Formula II compounds once a day at the same time. The mice in the positive control groups were intragastrically administered the corresponding doses of telmisartan and spironolactone once a day. The mice in the blank control group and the model group were given the same amount of solvent (0.5% CMC-Na solution). The administration volume was 10 mL/kg, and the administration was continuous for 14 days. From the 1st to the 13th day of drug administration, AngII modeling was carried out. The mice in the blank control group were subcutaneously injected with normal saline, and the mice in the other groups were subcutaneously injected with 1.44 mg/kg of AngII (modeling was carried out 2 h after drug administration), for a total of 13 times. Detection of myocardial hypertrophy/heart failure biomarkers: After the experiment, the animals were sacrificed by enucleation to obtain blood. The blood was left to stand at room temperature for 2 hours, and then centrifuged at 3500 rpm for 20 minutes to separate the serum. The content of serum BNP was determined according to the instructions of the ELISA kit.

[2] = system: mice with hypertensive heart disease induced by angiotensin II (AngII); experiment: AngII-induced hypertensive heart disease mouse model: serum aldosterone (ALD) (ELISA); type: in vivo
Method: as §1, with “serum aldosterone (ALD) level:” for “myocardial hypertrophy/heart failure biomarkers:”, “ALD” for “BNP”

[3] = system: mice with hypertensive heart disease induced by angiotensin II (AngII); experiment: AngII-induced hypertensive heart disease mouse model: serum cAMP (ELISA); type: in vivo
Method: as §1, with “serum CAMP level:” for “myocardial hypertrophy/heart failure biomarkers:”, “cAMP” for “BNP”

H9C2 cardiomyocytes = experiment: Angiotensin II (Ang II)-induced cardiomyocyte hypertrophy model, crystal violet, cell surface area; type: cell-based, rat; details: for number of cardiomyocytes (decrease in cell number caused by AngII): 0.5 μM and 1 μM, 40 μM AngII 24 h; for surface area of a single cardiomyocyte, View 1 / surface area of a single cardiomyocyte, View 2 / surface area of a single cardiomyocyte, View 3 / surface area of a single cardiomyocyte, View 4 / surface area of a single cardiomyocyte, View 5 / Myocardial surface area: 40 μM Ang II 24 h; for surface area of a single cardiomyocyte, View 1: field of view 1; for surface area of a single cardiomyocyte, View 2: field of view 2; for surface area of a single cardiomyocyte, View 3: field of view 3; for surface area of a single cardiomyocyte, View 4: field of view 4; for surface area of a single cardiomyocyte, View 5: field of view 5; for Myocardial surface area: mean of 5 views
Method: Adjust the H9C2 cardiomyocytes in the logarithmic growth phase to a density of 1.2×10^5 cells/well and inoculate them into six-well plates. […] After culturing for 24 hours, the drug administration groups are added with 40 μM Ang II and the corresponding concentrations of drugs. The Ang II+diltiazem 10 μM group is added with 40 μM Ang II and 10 μM diltiazem. The Ang II model group is added with 40 μM Ang II and an equal volume of DMSO. The blank control group is added with an equal volume of DMSO. Then, continue culturing for 24 hours. Discard the culture medium, wash the cells 3 times with PBS. Add 1 mL of methanol to each well and fix the cells at −20° C. for 20 minutes, and then let them return to room temperature. After discarding the methanol, add 1 mL of 0.5% crystal violet staining solution to each well and stain for 10 minutes. Wash the cells with clean water and take pictures under an inverted microscope. Randomly select fields of view for photographing. Use Image J software to measure the sum of the surface areas of all cardiomyocytes in the field of view and count the number of cells in the field of view at the same time to obtain the surface area of each cardiomyocyte. The surface area of a single cardiomyocyte=the sum of the surface areas of all cardiomyocytes in the field of view/the number of cardiomyocytes in the field of view.

[4] = 20 mg/kg intragastric once a day 14 days
[5] = 0.1 mg/kg intragastric once a day 14 days
[6] = 0.5 mg/kg intragastric once a day 14 days
[7] = 2 mg/kg intragastric once a day 14 days
[8] = 10 mg/kg intragastric once a day 14 days

SMILES | number of cardiomyocytes (decrease in cell number caused by AngII) (H9C2 cardiomyocytes; 0.1 μM) | surface area of a single cardiomyocyte, View 1 (H9C2 cardiomyocytes; 0.1 μM) [μm^2] | surface area of a single cardiomyocyte, View 2 (H9C2 cardiomyocytes; 0.1 μM) [μm^2] | surface area of a single cardiomyocyte, View 3 (H9C2 cardiomyocytes; 0.1 μM) [μm^2] | surface area of a single cardiomyocyte, View 4 (H9C2 cardiomyocytes; 0.1 μM) [μm^2] | surface area of a single cardiomyocyte, View 5 (H9C2 cardiomyocytes; 0.1 μM) [μm^2] | Myocardial surface area (H9C2 cardiomyocytes; 0.1 μM) | surface area of a single cardiomyocyte, View 1 (H9C2 cardiomyocytes; 0.5 μM) [μm^2] | surface area of a single cardiomyocyte, View 2 (H9C2 cardiomyocytes; 0.5 μM) [μm^2] | surface area of a single cardiomyocyte, View 3 (H9C2 cardiomyocytes; 0.5 μM) [μm^2] | surface area of a single cardiomyocyte, View 4 (H9C2 cardiomyocytes; 0.5 μM) [μm^2] | surface area of a single cardiomyocyte, View 5 (H9C2 cardiomyocytes; 0.5 μM) [μm^2] | Myocardial surface area (H9C2 cardiomyocytes; 0.5 μM) | surface area of a single cardiomyocyte, View 1 (H9C2 cardiomyocytes; 1 μM) [μm^2] | surface area of a single cardiomyocyte, View 2 (H9C2 cardiomyocytes; 1 μM) [μm^2] | surface area of a single cardiomyocyte, View 3 (H9C2 cardiomyocytes; 1 μM) [μm^2] | surface area of a single cardiomyocyte, View 4 (H9C2 cardiomyocytes; 1 μM) [μm^2] | surface area of a single cardiomyocyte, View 5 (H9C2 cardiomyocytes; 1 μM) [μm^2] | Myocardial surface area (H9C2 cardiomyocytes; 1 μM) | BNP [1, 5] [pg/mL] | also measured
CC(=O)S[C@@H]1CC2=CC(=O)CC[C@]2(C)[C@H]2CC[C@@]3(C)[C@@H](CC[C@@]34CCC(=O)O4)[C@H]12 [Spironolactone, reference compound] | – | – | – | – | – | – | – | – | – | – | – | – | – | – | – | – | – | – | – | – | BNP [1, 4]: 129.92 ± 15.60 pg/mL; ALD [2, 4]: 209.03 ± 25.11 pg/mL; cAMP [3, 4]: 29.34 ± 3.04 ^ nmol/L
O=c1c(Cc2ccc3c(c2)OCO3)coc2cc(O)cc(O)c12 [Formula I] | significantly improve the decrease in cell number caused by AngII | 362.68 | 351.69 | 344.78 | 338.55 | 410.64 | 361.67 ± 25.76^### μm^2 | 404.40 | 360.65 | 322.34 | 283.2 | 334.96 | 341.11 ± 40.33^### μm^2 | 312.97 | 300.38 | 328.43 | 331.13 | 303.72 | 315.33 ± 12.53^### μm^2 | 112.93 ± 17.57 | BNP [1, 6]: 117.59 ± 13.78 pg/mL; BNP [1, 7]: 102.97 ± 5.56 pg/mL; ALD [2, 5]: 206.80 ± 16.10 pg/mL; ALD [2, 6]: 192.69 ± 14.38 pg/mL; ALD [2, 7]: 199.41 ± 31.27 pg/mL; cAMP [3, 5]: 27.73 ± 3.03 nmol/L; cAMP [3, 6]: 27.42 ± 1.12 nmol/L; cAMP [3, 7]: 29.04 ± 5.17 ^ nmol/L
CCCc1nc2c(C)cc(-c3nc4ccccc4n3C)cc2n1Cc1ccc(-c2ccccc2C(=O)O)cc1 [Telmisartan, reference compound] | – | – | – | – | – | – | – | – | – | – | – | – | – | – | – | – | – | – | – | – | BNP [1, 8]: 96.84 ± 7.34 pg/mL; ALD [2, 8]: 162.74 ± 7.38 pg/mL; cAMP [3, 8]: 25.18 ± 1.10 nmol/L
Cc1c(O)cc(O)c2c(=O)c(Cc3ccc4c(c3)OCO4)coc12 [Formula II, 3-(benzo[d][1,3]dioxol-5-ylmethyl)-5,7-dihydroxy-8-methyl-4H-chromen-4-one] | significantly improve the decrease in cell number caused by AngII | 346.49 | 347.86 | 326.61 | 381.47 | 353.63 | 351.21 ± 17.66^### μm^2 | 420.10 | 338.84 | 355 | 334.83 | 342.18 | 358.19 ± 31.68^### μm^2 | 365.93 | 372.44 | 366.76 | 392.9 | 373.9 | 374.39 ± 9.76^### μm^2 | 103.21 ± 16.09 | BNP [1, 6]: 101.08 ± 9.09 pg/mL; BNP [1, 7]: 91.67 ± 15.39 pg/mL; ALD [2, 5]: 186.44 ± 21.59 pg/mL; ALD [2, 6]: 177.28 ± 21.57 pg/mL; ALD [2, 7]: 185.89 ± 12.61 pg/mL; cAMP [3, 5]: 24.81 ± 1.63 nmol/L; cAMP [3, 6]: 26.38 ± 1.81 nmol/L; cAMP [3, 7]: 24.42 ± 2.07 nmol/L
